The text below walks through data of patent publication US20060062725A1, “Methods for preparing metal-carborane complexes for radioimaging and radiotherapy” (priority 2004, published 2006).

The data set in a line: Stability of [99mTc(CO)3(OH2)3]+ prepared with the KF kit. Particulars: prepared in the presence of KF. It counts as physicochemical. As for the experimental part: Commercially available kits contain sodium tartrate to prevent premature decomposition of [^99mTc(CO)3(OH2)3]^+. Thinking that the chelate was interfering with the fluoride mediated complexation reaction, a kit in which KF was substituted for tartrate was prepared.

For [^99mTc(CO)3(OH2)3]^+, the time stable result is reported as “greater than 6 h”.
